In patent US10058587B2, “Peptide composition for cancer treatment by inhibiting TRPV6 calcium channel activity” (priority 2008, dated 2018):
Where no end group is shown, it is not given here.

Assays:
[1] = system: MDA-MB-468 (MB 468) breast cancer cell line; test: Induction of apoptosis (APO-ONE caspase 3/7) and cell viability (CellTiter Blue); format: cell-based, human
Description: MCF-7, MDA-MB-231, MDA-MB-415, MDA-MB-468 were grown in DMEM modified with 10% (v/v) fetal bovine serum, 2 mM L-glutamine and 50 ug/mL each of penicillin and streptomycin.
(§1) The levels of apoptotic induction and cell viability were determined by multiplexing the measurements for single samples. CellTiter Blue and APO-ONE assay systems from Promega allows the determination of cell viability correlated to cell number, and induction of apoptosis. This protocol uses a fluorgenic peptide that contains a peptide recognition-sequence for caspase 3 and caspase 7, […] proteolytic enzymes of the apoptosis cascade. The CellTiter Blue reagent was added to wells in a 96-well plate containing cells under test, immediately after addition of peptide solution or vehicle. About 5000 cells were plated into the wells the day before. At the chosen time (Day 1, Day 2 etc.) the fluorescence was measured at 590 nm (emission) after excitation at 560 nm. The caspase 3/7 activity was measured (485 nm Ex/527 nm Em) in the same wells after adding 120 uL of the Apo-ONE reagent, freeze fracturing at −80° C. for 1 hr, and incubating for 1 hr at room temperature.
(§2) For this work, the concentrations of SorC13 and SorC27 used were 0 uM, 1 uM, 10 uM and 100 uM. The experiments extended over a 5 to 7 day period. All measurements were done in quadruplicate with both a blank (no cells) and control (vehicle, no peptide) used to correct the test measurements. The time-response data, and the dose-response data were plotted as means±standard error of the mean. Any statistical comparisons were done with the Student's t-test or by ANOVA analysis over the dose course. The level of statistical significance was considered to be the 95% confidence interval (i.e., p≤0.05).

[2] = system: OV90 ovarian cancer cell line; test: as above; format: cell-based, human; parameters: key to Decline in cell viability: decreased (+); or not (−)
Description: OV-90 was cultured in a 1:1 mixture of MCDB 105 medium and Medium 199 supplemented with 15% (v/v) fetal bovine serum.
as §1, §2
To compare the effect of the two SorC-peptides against the gold-standard treatment for ovarian cancers SorC13 or SorC27 was compared to treatment with a carboplatin and taxol (CAT) cocktail (10 uM Paclitaxel, 20 mM carboplatin) using the APO-ONE assay, which measures the combined activities of caspase 3 and caspase 7. Because of the mixed treatment (CAT), the effects were compared in terms of the ratio of treatment:control. If no effect was noted then the ratio=1. Comparisons of the treatment:control ratios were examined with the Student's t-test at a confidence level of 95%. Ratios of larger than a value of unity indicated a positive effect. The effects are illustrated in FIG. 5.

[3] = system: NIH-OVCAR-3 and SKOV3 cells; test: Ovarian adenocarcinoma xenograft model (Example 14, general results); format: in vivo, NOD/SCID mice; conditions: 400 mg/kg body weight
Description: Optionally, to implant NIH-OVCAR-3 or SKOV3 tumor cells into NOD/SCID mice, cell cultures are centrifuged to pellet the cells, the supernatant is aspirated, the cell pellet is resuspended in 10 ml of growth media and the cell number is determined using a hemocytometer. The cells are then washed in appropriate media and re-suspended at a concentration of 5×10^7 cells/ml in media. Using a 27 gauge needle and 1 cc syringe, 0.1 ml of the cell suspension is injected subcutaneously into the flanks of the mice. Tumors are then permitted to develop in vivo until the majority reach 100-200 mm^3 in tumor volume, which typically requires 1-2 weeks following implantation. These tumors are used to produce tissue subcutaneous implants into NOD/SCID mice which after 2 days are treated with either the test peptides or CAT.
Tumor volumes (V) are calculated by caliper measurement using standard measurements of the width (W), length (L) and thickness (T) of tumors. Animals are randomized into treatment groups so that the median tumor volumes of each group were similar at the start of dosing. % T/C values, as a measure of efficacy, are determined where C refers to volume of control or untreated tumor, and T refers to volume of treated tumor.
Animals are intraperitoneally (i.p.) injected with this formulation at 10 ml per kg body weight on a schedule.

[4] = system: Human Non-Small Cell Lung Carcinoma (NSCLC) lines H1437 and H2087; test: Apoptosis (APO-ONE) and cell viability (CellTiter Blue) in NSCLC lines (Example 9); format: cell-based; conditions: 10 and 100 uM
Description: The effects of the C-peptides on metastasizing human lung carcinoma cells are studied. […] In vitro studies employing SorC13 and SorC27 are carried out in metastatic lymph node-derived cell lines to determine their effect on Human Non-Small Cell Lung Carcinoma (NSCLC) lines H1437 (from ATCC CRL-5872) and H2087 (from ATCC CRL-5922). Both of these cell lines are adenocarcinomas derived from the metastaic site (lymph node) and from a stage 1 NSCLC lung cancer. Major lymphatics of interest which are usefully treated with peptides of the invention include superfacial cervical nodes, axillary nodes, brachial nodes, mesenteric nodes and inguinal nodes.
For the study, the cell lines are grown under the recommended conditions and in culture media recommended by ATCC. The cell lines are cultured under sterile conditions at 37° C., in a humidified 5% CO2 atmosphere.
Both the APO-ONE assay and the CellTiter Blue (Promega) are used on the cell lines to evaluate apoptosis and cell viability, respectively.

[5] = system: K-562; test: Apoptosis and cell viability in CML cell line (Example 12); format: cell-based, human; conditions: 0, 10 and 100 uM, 5 to 7 days
Description: (§3) For this work, the concentrations of SorC13 and SorC27 used are 0 uM, 10 uM and 100 uM. The experiments extend over a 5 to 7 day period. All measurements are done in quadruplicate with both a blank (no cells) and control (vehicle, no peptide) used to correct the test measurements. The time-response data, and the dose-response data are plotted as means±standard error of the mean.
The cell line K-562 (from ATCC CCL-243) is grown under the recommended conditions and in culture media recommended by ATCC. The cell lines were cultured under sterile conditions at 37° C., in a humidified 5% CO2 atmosphere.
Induction of apoptosis and attendant decrease is observed in cell viability in the cancer cell lines. From the large increases in the activities of the caspase 3/7 activity, it is clear that there is a time dependent effect and a dose dependent effect on the induction of apoptosis.

[6] = system: MV-4-11; test: Apoptosis and cell viability in AML cell line (Example 13); format: cell-based, human; conditions: 0, 10 and 100 uM, 5 to 7 days
Description: as §3
The cell line MV-4-11 (from ATCC […]) is grown under the recommended conditions and in culture media recommended by ATCC. The cell lines were cultured under sterile conditions at 37° C., in a humidified 5% CO2 atmosphere.
Induction of apoptosis and attendant decrease is observed in cell viability in the cancer cell lines. From the large increases in the activities of the caspase3/7 activity, it is clear that there is a time dependent effect and a dose dependent effect on the induction of apoptosis.

[7] = system: mealworm larvae; test: Mealworm larva paralytic bioassay; format: in vivo

Row | Sequence | Apoptosis Index (1 = no effect) ([1]; Day 3, SorC27 10 μM) | Apoptosis Index (1 = no effect) ([1]; Day 3, SorC27 100 μM) | Apoptosis Index (1 = no effect) ([2]; Day 2, SorC27 100 uM) | Apoptosis Index (1 = no effect) ([2]; Day 3, SorC27 1 uM) | Apoptosis Index (1 = no effect) ([2]; Day 3, SorC27 10 uM) | Apoptosis Index (1 = no effect) ([2]; Day 3, SorC27 100 uM) | Decline in cell viability ([2]; SorC27) | growth rate of tumor cells [3] | induction of apoptosis [4] | induction of apoptosis and cell viability [5] | induction of apoptosis and cell viability [6] | Physiol. effects in vivo (mealworm larvae); 5 mg/kg [7] | Apoptosis Index (1 = no effect) ([1]; SorC13 1 uM) | Apoptosis Index (1 = no effect) ([1]; SorC13 10 uM) | Apoptosis Index (1 = no effect) ([1]; SorC13 100 uM) | apoptosis (treatment:control ratio) compared with CAT cocktail ([2]; CAT = 10 uM Paclitaxel, 20 mM carboplatin)
1 | EGKLSSNDTEGGLCKEFLHPSKVDLPR [SorC27] | 1.1 | 1.2 | 1.8 | 1.2 | 1.9 | 1.9 | + | substantially decreases the growth rate | induce apoptosis | induces apoptosis and decreases cell viability | induces apoptosis and decreases cell viability | Not paralytic | – | – | – | –
2 | KEFLHPSKVDLPR [SorC13, KEFLHPSKVDLPR] | – | – | – | – | – | – | – | substantially decreases the growth rate | induce apoptosis | induces apoptosis and decreases cell viability | induces apoptosis and decreases cell viability | Not paralytic | 2.7 | 3.3 | 2.7 | produced earlier and more intense apoptosis cascade than the CAT cocktail
